Experimental data from US8796176B2, “Pesticidal composition comprising an alpha-alkoxyphenyl acetic acid derivative and a neonicotinoid compound” (Sumitomo Chemical Company, Ltd, priority 2008, dated 2014).

System: Rhizoctonia solani
Assay: Cucumber seed treatment test against Rhizoctonia solani (Test Example 4)
Format: in vivo
Conditions: cucumber seeds, seventh day after dissemination
Description: 5: Diameter of maculation: >20 mm Incidence of disease=Σ(Evaluation index of leaves checked)×100/(Number of total leaves checked) “Equation 1” Control value=100(A−B)/A “Equation 2” A: Incidence of disease of plant in untreated area B: Incidence of disease of plant in treated area Generally, the control value expected for the case where the given two kinds of active ingredient compounds are mixed and used for the treatment, the so-called control value expectation is calculated from the following Colby's calculating equation. […] They were allowed to grow in a greenhouse while irrigated and the number of non-budding seeds was checked on the seventh day after the dissemination and the incidence of disease was calculated by Equation 4. The control value was calculated by Equation 2 based on the incidence of disease. […]

| Structure (SMILES) | Actual control value (clothianidin alone 200 g/Seed 100 kg) | Actual control value (compound (1b) alone 10 g/Seed 100 kg) |
| --- | --- | --- |
| CN/C(=N\[N+](=O)[O-])NCc1cnc(Cl)s1 [Clothianidin, clothianidin] | 4% | – |
| CNC(=O)C(OC)c1ccccc1COc1cc(C)ccc1C (racemic) [(1b)] | – | 35% |
